*1 amine or outer side, *2 acyl side, *3 side chain or, on linkers, in order; H or OH if unused. Where a SMILES comes first, the peptide text is derived from it. Bridges are numbered along the chain shown (N, C = ends). [ ]: non-standard residue; d: D form. ξ: configuration not given here. X2 = CCCCCCCCCCCC(CC(=O)[*:1])O[*:2]; ξAsp(3ξ-OH) = NC(C(=O)O)C(O)C(=O)O; X1 = O=C(C1C(O)CCN1[*:1])[*:2]
System: Clindamycin-erythromycin-resistant strains of C. difficile and C. perfringens
Format: cell-based

CCCCCCCCCCCC1CC(=O)N2CCCC2C(=O)NC(CO)C(=O)N2CCCC2C(=O)NC(CCCNC(=N)N)C(=O)NC(C(O)C(=O)O)C(=O)NC(CO)C(=O)N2CCC(O)C2C(=O)NC(C(O)C(=O)O)C(=O)O1 (stereo not shown) [Bu-2517] (PSPR[ξAsp(3ξ-OH)]S[X1][ξAsp(3ξ-OH)]; linker N-C via X2; configuration not given here)
concentration to which strains were susceptible: 1.6 to 3.1 µg/mL
